Like-named read-outs stand apart in the source and are kept apart here.
Tests used:
[1] = system: T47D (PI3Kα H1047R mutant) cells; experiment: CellTiter-Glo 2.0 luminescent cell viability assay, 72 hours, T47D cells; type: cell-based; details: T47D (PI3Kα H1047R mutant) cells, CellTiter-Glo, approximately 72 hours, read-out: T47D (H1047R mutant) Viability IC50
Summary of the method: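 Viability was measured by CellTiter-Glo 2.0 luminescence after approximately 72 h of compound exposure at 37° C. Plating was 1000 cells per well the day before dosing, with ten 1:4 dilutions from a 10 µM top concentration. Values as percent of vehicle were fitted by variable-slope log(inhibitor) regression to give IC50.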

[2] = system: SKBR3 (PI3Kα wild type) cells; experiment: CellTiter-Glo 2.0 luminescent cell viability assay, 72 hours, SKBR3 cells; type: cell-based; details: Homo sapiens, SK-BR-3, 72 h, SKBR3 (PI3Kα wild type) cells, CellTiter-Glo, approximately 72 hours; read-out: SKBR3 (WT) Viability IC50
Summary of the method: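 Viability measured via CTG luminescence following roughly 72 hours of compound exposure at 37° C. Dosing used a 10 um starting concentration diluted 1:4 over 10 points; percent-of-vehicle data fitted with a variable-slope four-parameter model for IC50.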

IC50 ([1]; Homo sapiens, T47D, 72 h) [µM]	IC50 [2] [µM]	IC50 [1] [µM]	SMILES
> 10	> 10		COc1cc(=O)n2cc(C)cc(C(C)Nc3ccccc3C(=O)O)c2n1 (stereo not shown) [Example 11-372, 2-((1-(2-methoxy-7-methyl-4-oxo-4H-pyrido[1,2-a]pyrimidin-9-yl)ethyl)amino)benzoic acid]
	8.26	1.09	Cc1cc([C@@H](C)Nc2ccc(Cl)nc2C(=O)O)c2nc(N3Cc4ccccc4C3)c(C)c(=O)n2c1 [Example 11-360, (R)-6-chloro-3-((1-(2-(isoindolin-2-yl)-3,7-dimethyl-4-oxo-4H-pyrido[1,2-a]pyrimidin-9-yl)ethyl)amino)picolinic acid]
> 10	> 10		Cc1cc(C(C)Nc2ccccc2P(C)(=O)O)c2nc(N3Cc4ccccc4C3)cc(=O)n2c1 (stereo not shown) [Example 11-333, (2-((1-(2-(isoindolin-2-yl)-7-methyl-4-oxo-4H-pyrido[1,2-a]pyrimidin-9-yl)ethyl)amino)phenyl)(methyl) phosphinic acid]
0.227	> 10		Cc1cc([C@@H](C)Nc2ccccc2C(=O)O)c2nc(N3CCN(c4ccc(C#N)cc4)[C@H](C)C3)c(C#N)c(=O)n2c1 [Example 11-270, 2-(((R)-1-(3-cyano-2-((R)-4-(4-cyanophenyl)-3-methylpiperazin-1-yl)-7-methyl-4-oxo-4H-pyrido[1,2-a]pyrimidin-9-yl)ethyl)amino)benzoic acid]
8.38	> 10		Cc1cc(C(C)Nc2ccccc2C(=O)O)c2nc(-c3cnn(C)c3)cc(=O)n2c1 (stereo not shown) [Example 11-405, 2-((1-(7-methyl-2-(1-methyl-1H-pyrazol-4-yl)-4-oxo-4H-pyrido[1,2-a]pyrimidin-9-yl)ethyl)amino)benzoic acid]
0.119	> 10		Cc1cc([C@@H](C)Nc2ccccc2C(=O)O)c2nc(N3CCN(c4ncc(C#N)cn4)CC3)c(C)c(=O)n2c1 [Example 11-258, (R)-2-((1-(2-(4-(5-cyanopyrimidin-2-yl)piperazin-1-yl)-3,7-dimethyl-4-oxo-4H-pyrido[1,2-a]pyrimidin-9-yl)ethyl)amino)benzoic acid]
> 10	> 10		Cc1cc(C(C)Nc2cccc(C)c2C(=O)O)c2nc(N3CCCCC3)cc(=O)n2c1 (stereo not shown) [Example 11-390, 2-methyl-6-((1-(7-methyl-4-oxo-2-(piperidin-1-yl)-4H-pyrido[1,2-a]pyrimidin-9-yl)ethyl)amino)benzoic acid]
> 10	> 10		Cc1cc([C@@H](C)Nc2ccccc2C(=O)O)c2nc(N3CCC(N(C)C)CC3)c(C#N)c(=O)n2c1 [Example 11-313, (R)-2-((1-(3-cyano-2-(4-(dimethylamino)piperidin-1-yl)-7-methyl-4-oxo-4H-pyrido[1,2-a]pyrimidin-9-yl)ethyl)amino)benzoic acid]
> 10	> 10		Cc1cc(C(C)Nc2ccccc2C(=O)O)c2nc(-c3ccccc3C)cc(=O)n2c1 (stereo not shown) [Example 11-395, 2-((1-(7-methyl-4-oxo-2-(o-tolyl)-4H-pyrido[1,2-a]pyrimidin-9-yl)ethyl)amino)benzoic acid]
9.09	> 10		CC(Nc1ccccc1C(=O)O)c1cc(C(F)(F)F)cn2c(=O)cc(N3CCCCC3)nc12 (stereo not shown) [Example 11-416, 2-((1-(4-oxo-2-(piperidin-1-yl)-7-(trifluoromethyl)-4H-pyrido[1,2-a]pyrimidin-9-yl)ethyl)amino)benzoic acid]
> 10	> 10		C#CC(Nc1ccccc1C(=O)O)c1cc(C)cn2c(=O)c(C)c(N3CCC(F)(F)CC3)nc12 (stereo not shown) [Example 11-241, 2-((1-(2-(4,4-difluoropiperidin-1-yl)-3,7-dimethyl-4-oxo-4H-pyrido[1,2-a]pyrimidin-9-yl)prop-2-yn-1-yl)amino)benzoic acid]

Further lines, the compound ahead of its results:

SMILES	IC50 ([1]; Homo sapiens, T47D, 72 h) [µM]	IC50 [2] [µM]	IC50 [1] [µM]
Cc1cc([C@@H](C)Nc2ccncc2C(=O)O)c2nc(N3CCC(F)(F)CC3)c(C#N)c(=O)n2c1 [Example 11-142, (R)-4-((1-(3-cyano-2-(4,4-difluoropiperidin-1-yl)-7-methyl-4-oxo-4H-pyrido[1,2-a]pyrimidin-9-yl)ethyl)amino)nicotinic acid]	> 10	> 10	
Cc1cc([C@@H](C)Nc2ccccc2C(=O)O)c2nc(N3CCC4(CC3)CC4(F)F)c(C#N)c(=O)n2c1 [Example 11-218, (R)-2-((1-(3-cyano-2-(1,1-difluoro-6-azaspiro[2.5]octan-6-yl)-7-methyl-4-oxo-4H-pyrido[1,2-a]pyrimidin-9-yl)ethyl)amino)benzoic acid]	0.177	> 10	
Cc1cc([C@@H](C)Nc2ccccc2C(=O)O)c2nc(N3C4CNCC3C4)c(C#N)c(=O)n2c1 [Example 11-178, 2-(((1R)-1-(2-(3,6-diazabicyclo[3.1.1]heptan-6-yl)-3-cyano-7-methyl-4-oxo-4H-pyrido[1,2-a]pyrimidin-9-yl)ethyl)amino)benzoic acid]	≥ 10	> 10	
Cc1cc([C@@H](C)Nc2ccccc2C(=O)O)c2nc(N3CCC(C(C)(C)C)n4nccc43)c(C)c(=O)n2c1 (stereo partly drawn) [Example 11-13, 2-(((1R)-1-(2-(7-(tert-butyl)-6,7-dihydropyrazolo[1,5-a]pyrimidin-4(5H)-yl)-3,7-dimethyl-4-oxo-4H-pyrido[1,2-a]pyrimidin-9-yl)ethyl)amino)benzoic acid]	0.324	> 10	
Cc1cc([C@@H](C)Nc2ccccc2C(=O)O)c2nc(N3CCN(CC(F)(F)F)CC3)c(C#N)c(=O)n2c1 [Example 11-154, (R)-2-((1-(3-cyano-7-methyl-4-oxo-2-(4-(2,2,2-trifluoroethyl)piperazin-1-yl)-4H-pyrido[1,2-a]pyrimidin-9-yl)ethyl)amino)benzoic acid]	0.138	> 10	
Cc1cc([C@@H](C)Nc2ccccc2C(=O)O)c2nc(N3CC[C@@H]3C)c(C)c(=O)n2c1 [Example 11-101, 2-(((R)-1-(3,7-dimethyl-2-((S)-2-methylazetidin-1-yl)-4-oxo-4H-pyrido[1,2-a]pyrimidin-9-yl)ethyl)amino)benzoic acid]	0.18	> 10	
CO[C@@H]1CCN(c2nc3c([C@@H](C)Nc4ccccc4C(=O)O)cc(C)cn3c(=O)c2C)CC1(F)F [Example 10-28, 2-(((R)-1-(2-((R)-3,3-difluoro-4-methoxypiperidin-1-yl)-3,7-dimethyl-4-oxo-4H-pyrido[1,2-a]pyrimidin-9-yl)ethyl)amino)benzoic acid]	0.053	> 10	
Cc1cc([C@@H](C)Nc2ccccc2C(=O)O)c2nc(N3CC(F)(F)C(F)(F)C3)c(C#N)c(=O)n2c1 [Example 11-136, (R)-2-((1-(3-cyano-7-methyl-4-oxo-2-(3,3,4,4-tetrafluoropyrrolidin-1-yl)-4H-pyrido[1,2-a]pyrimidin-9-yl)ethyl)amino)benzoic acid]	0.162	> 10	
Cc1cc([C@@H](C)Nc2ccccc2C(=O)O)c2nc(N3CC4C5CCC(C5O)C4C3)c(C)c(=O)n2c1 (stereo partly drawn) [Example 11-35, 2-(((1R)-1-(2-(8-hydroxyoctahydro-2H-4,7-methanoisoindol-2-yl)-3,7-dimethyl-4-oxo-4H-pyrido[1,2-a]pyrimidin-9-yl)ethyl)amino)benzoic acid]	0.136	> 10	

Reference: patent US20260078120A1, “SUBSTITUTED PYRIDOPYRIMIDINONES” (MIRATI THERAPEUTICS, INC., priority 2022, published 2026)
